Columns and labels:
Assay type in all cases: in vivo, rat
[1] = test system: adult male rats; test: Von Frey Test, morphine 1 mg/kg; conditions: given alone, morphine 1 mg/kg IV
[2] = test system: freely moving rats; test: Arterial blood-gas chemistry and A-a gradient in morphine-treated rats; conditions: freely moving rats, morphine 10 mg/kg IV, then drug 500 μmol/kg IV 15 min later
[3] = test system: freely moving rats; test: Hot-plate (hind-paw withdrawal) latency (HPL), Hargreaves's test, morphine 10 mg/kg; conditions: morphine 10 mg/kg IV in vehicle-treated rats
[4] = test system: freely moving rats; test: Tail-flick latency (TFL) test; conditions: for Tail-Flick latency: vehicle-pretreated rats, morphine 10 mg/kg IV

CN1CC[C@]23c4c5ccc(O)c4O[C@H]2[C@@H](O)C=C[C@H]3[C@H]1C5 [Morphine, morphine]
force needed to initiate hind-paw withdrawal (Von Frey) ([1]; D-cystine diME 500 μmol/kg IV, FIG. 27 study): 177±8 grams
force needed to initiate hind-paw withdrawal (Von Frey) ([1]; L-cystine diME 500 μmol/kg IV, FIG. 25 study): 88.3 ± 7.0 g
changes in ABG chemistry (pH, pCO2, pO2 and sO2) ([2]; FIG. 18): substantial falls in pH, pO2 and sO2 accompanied by substantial increases in pCO2
changes in A-a gradient ([2]; FIG. 19): substantial and equivalent increases
duration of the increase in HPL [3]: at least 4 h
duration of the increase in TFL ([4]; morphine 10 mg/kg IV in vehicle-treated rats): at least 4 h
Tail-Flick latency ([4]; post-morphine - 30 min): 12 ± 0.0 s
Tail-Flick latency ([4]; post-morphine - 60 min): 12 ± 0.0 s
Tail-Flick latency ([4]; post-morphine - 90 min): 11.7 ± 0.2 s
Tail-Flick latency ([4]; post-morphine - 120 min): 11.1 ± 0.2 s
Tail-Flick latency ([4]; post-morphine - 180 min): 8.3 ± 0.3 s
Tail-Flick latency ([4]; post-morphine - 210 min): 5.6 ± 0.3 s
Tail-Flick latency ([4]; post-morphine - 240 min): 4.3 ± 0.3 s
Tail-Flick latency ([4]; post-morphine - 360 min): 3.3 ± 0.3 s

— US12083089B2, “Compositions and methods for stimulating ventilatory and/or respiratory drive” (CASE WESTERN RESERVE UNIVERSITY, priority 2015, dated 2024)
